The values below come from patent US20250171400A1, “AZA-HETEROCYCLYL CARBOXAMIDE AND RELATED COMPOUNDS AND THEIR USE IN TREATING MEDICAL CONDITIONS” (X-BIOTIX THERAPEUTICS, INC., priority 2021, published 2025).

Values after ≈ are worked out from the molar mass of the structure shown. Like-named read-outs stand apart in the source and are kept apart here.

In one assay the target is E. coli LpxC (Escherichia coli (strain K12), UniProt P0A725). Kind of assay: in vitro substrate deacetylation assay for inhibition of LpxC (ADDA analysis). Format: biochemical. The note with it: 5 nM E. coli LpxC, 2.5 μM substrate, 1 hour at room temperature. The gist of the method:
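E. coli LpxC (5 nM) was preincubated with compound for 10 min at room temperature in phosphate/sucrose/BSA buffer, pH 7.2. UDP-3-O-(R-3-hydroxymyristoyl)-GlcNAc (final 2.5 μM) was then added for 1 h. Substrate and product were measured by ADDA LC-MS/MS, with 1 μM CHIR-090 defining 100% inhibition and IC50 from a four-parameter fit.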

The test system of assay [1] is E. coli BW25113 isogenic mutant deficient in acrA mediated efflux. Kind of assay: broth microdilution minimum inhibition concentration assay. The class given is cell-based. To be noted: Escherichia coli, BW25113, read-out: E. coli KO MIC. The essentials:
(§1)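 CLSI broth microdilution with serial doubling dilutions in cation-adjusted Mueller-Hinton broth; inoculum adjusted to 1×10^6 CFU/mL, incubated 16-20 h at 37° C in air. Knockouts are isogenic clean deletions of acrA (E. coli BW25113) or MexA (PAO1); QC by piperacillin on ATCC reference strains.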

Assay [2] concerns P. aeruginosa PAO1 isogenic mutant deficient in MexA mediated efflux. The description is as above. The class given is cell-based. The note with it: Pseudomonas aeruginosa, PAO1, read-out: P. aeruginosa KO MIC. The gist of the method:
as §1

The subject of assay [3] is wild-type E. coli BW25113. The description is as above. Format: cell-based. The note with it: Escherichia coli; wild-type E. coli BW25113, 37° C. 16-20 h; read-out: E. coli WT MIC. The gist of the method: as §1
Assay [4] relates to wild-type P. aeruginosa PAO1. The description is as above. Format: cell-based. The note with it: Pseudomonas aeruginosa. The gist of the method:
as §1

Another assay addresses P. aeruginosa LpxC (Pseudomonas aeruginosa (strain ATCC 15692 / DSM 22644 / CIP 104116 / JCM 14847 / LMG 12228 / 1C / PRS 101 / PAO1), UniProt P47205). The assay is described as follows: biochemical. Format: biochemical. To be noted: 5 nM P. aeruginosa LpxC, 2.5 μM substrate, 1 hour at room temperature. The gist of the method:
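In vitro deacetylation of substrate by P. aeruginosa LpxC in 384-well format. Substrate and product were captured on Hypercarb and quantified by negative-mode electrospray triple-quadrupole MS. IC50 was derived from the fraction of substrate converted at each compound concentration, calculated from peak areas.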

Where [5] appears, read: PAO1, read-out: P. aeruginosa WT MIC.
Where [6] appears, read: wild-type P. aeruginosa PAO1, 37° C. 16-20 h, read-out: P. aeruginosa WT MIC.

E. coli LpxC, sequence (P0A725 whole entry): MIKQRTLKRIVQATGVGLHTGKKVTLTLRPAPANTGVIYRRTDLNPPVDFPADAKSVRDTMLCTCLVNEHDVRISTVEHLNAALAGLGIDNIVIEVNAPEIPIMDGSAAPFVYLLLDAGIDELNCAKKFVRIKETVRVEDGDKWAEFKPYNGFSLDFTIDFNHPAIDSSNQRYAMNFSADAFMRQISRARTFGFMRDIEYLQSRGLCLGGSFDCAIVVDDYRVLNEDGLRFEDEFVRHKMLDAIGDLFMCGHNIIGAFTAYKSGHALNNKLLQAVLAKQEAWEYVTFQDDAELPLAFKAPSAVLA

In the case of `CC(C)C(=O)N1C[C@H](NC(=O)[C@H]2NCC[C@@H]2O)C[C@@H]1C(=O)NCc1ccc(C#Cc2ccc(CN3CCOCC3)cc2)cc1` [Example 9AA], the values for the IC50 against E. coli LpxC and against P. aeruginosa LpxC were 500 to 2500 nM and < 50 nM, respectively. The MIC in assay [1] is > 100 µM; in assay [2], 20 to 100 µM (≈ 12 to 60.2 µg/mL); in assay [3], > 100 µM; in assay [4] (setting [5]), > 100 µM.

With `O=C(N[C@@H]1C[C@H](C(=O)NCc2ccc(C#Cc3ccc(CN4CCOCC4)cc3)cc2)N(C(=O)C2CC2)C1)[C@@H]1C[C@H](F)CN1` [Example 9AJ], the IC50 on E. coli LpxC was < 500 nM; at P. aeruginosa LpxC, < 50 nM. For the same compound, the MIC in assay [1] was < 20 µM; in assay [2], < 20 µM; in assay [3] it was 20 to 100 µM (≈ 12 to 60.2 µg/mL); in assay [4] (setting [6]), > 100 µM.

Regarding `CC(C)C(=O)N1C[C@H](NC(=O)[C@H]2NCC[C@H]2O)C[C@@H]1C(=O)NCc1ccc(C#Cc2ccc(CN3CCOCC3)cc2)cc1` [Example 9V], the results for the IC50 against E. coli LpxC and on P. aeruginosa LpxC were 2500 to 10000 nM and 100 to 1000 nM, respectively. The MIC in assay [1], in assay [2], in assay [3] and in assay [4] (setting [5]) was > 100 µM in each case.

`CC(C)C(=O)N1C[C@H](NC(=O)[C@@H]2CCCN2)C[C@@H]1C(=O)NCc1ccc(C#Cc2ccc(CN3CCOCC3)cc2)cc1` [Example 9K]: the IC50 on E. coli LpxC is 500 to 2500 nM; against P. aeruginosa LpxC it was 50 to 100 nM. Further, the MIC was 20 to 100 µM (≈ 11.7 to 58.6 µg/mL) in assay [1], 20 to 100 µM (≈ 11.7 to 58.6 µg/mL) in assay [2], > 100 µM in assay [3] and > 100 µM in assay [4] (setting [5]).

As to `O=C(N[C@@H]1C[C@H](C(=O)NCc2ccc(C#Cc3ccc(CN4CCOCC4)cc3)cc2)N(C(=O)OC2CC2)C1)[C@@H]1C[C@H](F)CN1` [Example 9AW], the IC50 was < 500 nM against E. coli LpxC and < 50 nM at P. aeruginosa LpxC. In addition, the MIC was < 20 µM in assay [1], < 20 µM in assay [2], > 100 µM in assay [3] and > 100 µM in assay [4] (setting [6]).

For the compound `COCCN1C[C@H](NC(=O)[C@@H]2C[C@H](F)CN2)C[C@@H]1C(=O)NCc1ccc(C#CC#CC2CC2)cc1` [Example 9AM, (2R,4R)—N-(4-(Cyclopropylbuta-1,3-diyn-1-yl)benzyl)-4-((2S,4S)-4-fluoropyrrolidine-2-carboxamido)-1-(2-methoxyethyl)pyrrolidine-2-carboxamide], the results for the concentration for half-maximal inhibition (IC50) against E. coli LpxC and against P. aeruginosa LpxC were 2500 to 10000 nM and 100 to 1000 nM, respectively. Also, the MIC in assay [1], in assay [2], in assay [3] and in assay [4] (setting [5]) was > 100 µM throughout.

As for `O=C(O)CN1C[C@H](NC(=O)[C@@H]2C[C@H](F)CN2)C[C@@H]1C(=O)NCc1ccc(C#CC#CC2CC2)cc1` [Example 9AN, 2-((2R,4R)-2-((4-(Cyclopropylbuta-1,3-diyn-1-yl)benzyl)carbamoyl)-4-((2S,4S)-4-fluoropyrrolidine-2-carboxamido)pyrrolidin-1-yl)acetic acid], the IC50 against E. coli LpxC was < 500 nM; against P. aeruginosa LpxC, 50 to 100 nM. The MIC is > 100 µM in assay [1], 20 to 100 µM (≈ 9.61 to 48.1 µg/mL) in assay [2], > 100 µM in assay [3] and > 100 µM in assay [4] (setting [5]).

In the case of `CC(C)C(=O)N1C[C@H](NC(=O)[C@@H]2CCCN2)C[C@@H]1C(=O)NCc1ccc(C#Cc2ccccc2)cc1` [Example 9J], the IC50 lay in the range of 2500 to 10000 nM at E. coli LpxC and 100 to 1000 nM on P. aeruginosa LpxC. Besides, the MIC was 20 to 100 µM (≈ 9.73 to 48.7 µg/mL) in assay [1], > 100 µM in assay [2], > 100 µM in assay [3] and > 100 µM in assay [4] (setting [5]).

In the case of `CC(C)C(=O)N1C[C@H](NC(=O)[C@@H]2C[C@@H](O)CN2)C[C@@H]1C(=O)NCc1ccc(C#Cc2ccc(CN3CCOCC3)cc2)cc1` [Example 9Y], the figures for the IC50 against E. coli LpxC and against P. aeruginosa LpxC were < 500 nM and 50 to 100 nM, respectively. Also, the MIC is 20 to 100 µM (≈ 12 to 60.2 µg/mL) in assay [1], 20 to 100 µM (≈ 12 to 60.2 µg/mL) in assay [2], > 100 µM in assay [3] and > 100 µM in assay [4] (setting [5]).

In the case of `O=C(NC[C@H]1C[C@@H](NC(=O)[C@@H]2C[C@H](F)CN2)CN1C(=O)C1CC1)c1ccc(C#Cc2ccc(CN3CCOCC3)cc2)c(F)c1` [Example 8, (2S,4S)—N-((3R,5R)-1-(cyclopropanecarbonyl)-5-((3-fluoro-4-((4-(morpholinomethyl)phenyl)ethynyl)benzamido)methyl)pyrrolidin-3-yl)-4-fluoropyrrolidine-2-carboxamide], the IC50 against E. coli LpxC was < 500 nM; at P. aeruginosa LpxC it was < 50 nM. Further, the MIC in assay [1] is < 20 µM; in assay [2], < 20 µM; in assay [3], < 20 µM; in assay [4] (setting [6]), 20 to 100 µM (≈ 12.4 to 62 µg/mL).

On to `NC1CN(C(=O)N2C[C@H](NC(=O)[C@@H]3C[C@H](F)CN3)C[C@@H]2C(=O)NCc2ccc(C#CC#CC3CC3)cc2)C1` [Example 9X], for which the results for the IC50 at E. coli LpxC and against P. aeruginosa LpxC were 500 to 2500 nM and < 50 nM, respectively. The MIC was 20 to 100 µM (≈ 10.4 to 52.1 µg/mL) in assay [1], < 20 µM in assay [2], > 100 µM in assay [3] and > 100 µM in assay [4] (setting [6]).

As to `C[C@@H](CN)C(=O)N1C[C@H](NC(=O)[C@@H]2C[C@H](F)CN2)C[C@@H]1C(=O)NCc1ccc(C#CC#CC2CC2)cc1` [Example 9S], the IC50 was 500 to 2500 nM against E. coli LpxC and 50 to 100 nM at P. aeruginosa LpxC. Also, the MIC in assay [1], in assay [2], in assay [3] and in assay [4] (setting [5]) was > 100 µM each time.

With `CC(C)C(=O)N1C[C@H](NC(=O)[C@@H]2C[C@H](C#N)CN2)C[C@@H]1C(=O)NCc1ccc(C#Cc2ccc(CN3CCOCC3)cc2)cc1` [Example 9AD, (2R,4R)-4-((2S,4S)-4-Cyanopyrrolidine-2-carboxamido)-1-isobutyryl-N-(4-((4-(morpholinomethyl)phenyl)ethynyl)benzyl)pyrrolidine-2-carboxamide], the IC50 was < 500 nM against E. coli LpxC and < 50 nM on P. aeruginosa LpxC. Besides, the MIC in assay [1] was 20 to 100 µM (≈ 12.2 to 61.1 µg/mL); in assay [2], < 20 µM; in assay [3] it was > 100 µM; in assay [4] (setting [6]) it was > 100 µM.

For `O=C(NC[C@H]1C[C@@H](NC(=O)[C@@H]2C[C@H](F)CN2)CN1C(=O)C1CC1)c1ccc(C#Cc2ccccc2)cc1` [Example 9AX], the IC50 was < 500 nM at E. coli LpxC and < 50 nM at P. aeruginosa LpxC. For the same compound, the MIC in assay [1] was < 20 µM; in assay [2], < 20 µM; in assay [3] it was < 20 µM; in assay [4] (setting [6]), > 100 µM.
